According to US20220062340A1, “IMMUNOTHERAPEUTIC METHODS AND COMPOSITIONS” (KING'S COLLEGE LONDON, priority 2018, published 2022):

Key:
Tregs from CD patients = test: Gene array of expanded Tregs from CD patients; assay type: cell-based, human; conditions: compared to rapamycin only, n=3
Description: Gene array analyses were carried out using Partek® software with a 1-way ANOVA to assess for differential gene expression.
1) RNA extraction was performed using Qiagen RNEasy mini/micro kits as per manufacturer's instructions. The samples were checked for RNA quality using the Agilent 2100 Bioanalyzer and quantified using the Nanodrop (ND-1000 Spectrophotometer). Samples which passed QC (RIN>8) were chosen such that input amount of each sample was 3 ng.
2) SPIA cDNA was generated using the “Ovation Pico WTA System V2” kit from Nugen, following the manufacturer's instructions.
3) The SPIA cDNA was subjected to a QC check to assess quality (Agilent 2100 Bioanalyzer) and quantity (Nanodrop ND-1000 Spectrophotometer) for the next stage.
4) The SPIA cDNA was fragmented and Biotin-labelled using the “Encore Biotin Module” from Nugen according to the manufacturer's instructions and passed through QC checks to assess fragmentation size (Agilent 2100 Bioanalyzer).
6) Hybridization cocktails were prepared of the fragmented labelled-cDNA according to Nugen's recommendations and hybridized at 45° C. overnight in an oven.
7) The arrays were washed and stained using wash protocol FS450_0002 (Affymetrix protocol recommended for Human Gene 2.0 Arrays on the GeneChip Fluidics station 450.
8) The arrays were scanned using the Affymetrix GeneChip Scanner.
Gene expression analyses were performed on Tregs from CD patients expanded in the presence of Rapa+ATRA, Rapa+RAR568 or rapamycin only (n=3 in each group). […] CD161 has previously been described as a marker of T helper (Th) 17-like Tregs^32. This was not observed in the RAR568-treated group. […] IL-18 Receptor 1 and STAT4 are responsible for Th1 lineage commitment and IFNγ production, both have been independently identified as IBD disease related polymorphisms on GWAS^33-36. CD38 has been identified as a marker associated with mature T cells, signaling reduced proliferation, but an increased ability to produce pro-inflammatory cytokines such as IFNγ^37. Ligation of GPR174 negatively affects Treg accumulation and function^38. No clear difference in transcripts for canonical pathways were identified when ATRA treated cells were compared with RAR568 treated cells.
To assess for off target RARγ effects, we compared the gene expression profiles of RAR568 and ATRA treated cells to a published dataset of RARγ target genes^39. […] Given the efficacy at inducing α4β7 and lack of off target effects, RAR568 fulfilled the target product profile for an agent that could be used for ex vivo Treg expansion for cell-based therapy purposes. Therefore, we probed this effect of RAR568 on Tregs from CD patients in functional in vitro and in vivo trafficking assays.

RARα = target: T1, RARα (Homo sapiens, UniProt P10276); test: Selectivity profile against human RARs (RARα agonism); assay type: biochemical
T1 sequence (P10276 1-462): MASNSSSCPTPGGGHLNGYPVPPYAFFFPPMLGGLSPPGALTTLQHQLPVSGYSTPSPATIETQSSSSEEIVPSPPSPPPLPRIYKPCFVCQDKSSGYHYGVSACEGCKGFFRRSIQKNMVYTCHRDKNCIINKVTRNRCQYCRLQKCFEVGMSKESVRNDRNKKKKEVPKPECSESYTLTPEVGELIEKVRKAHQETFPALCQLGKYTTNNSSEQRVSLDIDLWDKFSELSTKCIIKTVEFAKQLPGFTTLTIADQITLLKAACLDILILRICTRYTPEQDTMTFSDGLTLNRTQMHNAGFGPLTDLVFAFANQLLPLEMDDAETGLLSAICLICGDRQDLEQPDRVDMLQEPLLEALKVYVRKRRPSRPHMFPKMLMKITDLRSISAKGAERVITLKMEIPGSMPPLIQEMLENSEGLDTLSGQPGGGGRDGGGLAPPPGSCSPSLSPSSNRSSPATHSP

FOXP3 in Tregs = test: FOXP3 expression of ex vivo expanded Tregs; assay type: cell-based, human; conditions: Tregs expanded in the presence of the agonist
Description: FACS-sorted Treg populations were plated at 1×10^6 or 0.5×10^6 in X-VIVO-15 medium and activated with anti-CD3/anti-CD28 coated beads (Dynabeads®, Invitrogen, Paisley, UK) at 1:1 bead: cell ratio. Rapamycin was added at day 0 of culture at a final concentration of 100 nM/L +/−ATRA 1 nM/L or RAR568 1 nM/L. Next, 1,000 IU/ml recombinant human IL-2 (rhlL-2) (Proleukin®, Novartis, Camberley, UK) was added at day 5 of culture. Cells were re-stimulated every 10-12 days and expanded for a total of 24-30 days. The phenotype and suppressive ability were assessed at the end of the culture period.
Flow cytometry panels have been designed to assess the subtypes of regulatory T cells in patients with CD as well as their expression of gut homing molecules. Gating was performed based on natural populations when assessing for CD4^+CD25^highCD127low populations, as well as for CD45RA^+ Treg populations. Additionally, to minimize bias in the assessment of expression of gut homing markers and transcription factors, a fluorochrome minus one (FMO) panel was added for each marker of interest in each experiment that was performed.

[1] = system: integrin α4β7 on Treg surface; test: Induction of integrin α4β7 on bulk Treg surface by RARα agonists (FIG. 6); assay type: cell-based; conditions: bulk CD4+CD25+CD127− Tregs, 12 days stimulation, reducing agonist concentrations
Description: Bulk Tregs (CD4+CD25+CD127−) Tregs (50,000 per well) were expanded in vitro with reducing concentrations of the agonists. Culture conditions: 2 aCD3/aCD28 beads/cell, 1000IU/mL IL-2, 0.1 nM Rapamycin+Agonist in X-vivo 15. Following 12 days stimulation, cells were stained for CD4, CD25, CD127, FOXP3, Integrin a4, Integrin b7, CD15s, CD161 and acquired on a BD symphony flow cytometer. Data was analysed in Flowjo and Prism.

- EC50 (RARα): 590 pM
Structure (SMILES): CCOc1c(Cl)cc(C(=O)Nc2ccc(C(=O)O)c(C)c2)cc1OC(C)C [RAR568]
- transcripts for CD161 (Tregs from CD patients): not observed
- FOXP3 expression of expanded Tregs (FOXP3 in Tregs; mean ± SD): 96.99% ±3.51
- FOXP3 expression, range (FOXP3 in Tregs; range): 91.5-99.8
- induction of integrin α4β7 on Treg surface [1]: comparable effects
